{"source": "patent US20090238808A1", "about": "“Process for the identification of novel enzyme interacting compounds” (priority 2005, published 2009)", "key": {"ITK": {"target": "T1, ITK (Homo sapiens, UniProt Q08881)", "T1 construct": "Aliqots of Jurkat lysate (10 mg protein) were incubated with different Bis VIII concentrations; endogenous in cells; host or cells: Jurkat clone E6-1 lysate", "T1 sequence (Q08881 whole entry)": "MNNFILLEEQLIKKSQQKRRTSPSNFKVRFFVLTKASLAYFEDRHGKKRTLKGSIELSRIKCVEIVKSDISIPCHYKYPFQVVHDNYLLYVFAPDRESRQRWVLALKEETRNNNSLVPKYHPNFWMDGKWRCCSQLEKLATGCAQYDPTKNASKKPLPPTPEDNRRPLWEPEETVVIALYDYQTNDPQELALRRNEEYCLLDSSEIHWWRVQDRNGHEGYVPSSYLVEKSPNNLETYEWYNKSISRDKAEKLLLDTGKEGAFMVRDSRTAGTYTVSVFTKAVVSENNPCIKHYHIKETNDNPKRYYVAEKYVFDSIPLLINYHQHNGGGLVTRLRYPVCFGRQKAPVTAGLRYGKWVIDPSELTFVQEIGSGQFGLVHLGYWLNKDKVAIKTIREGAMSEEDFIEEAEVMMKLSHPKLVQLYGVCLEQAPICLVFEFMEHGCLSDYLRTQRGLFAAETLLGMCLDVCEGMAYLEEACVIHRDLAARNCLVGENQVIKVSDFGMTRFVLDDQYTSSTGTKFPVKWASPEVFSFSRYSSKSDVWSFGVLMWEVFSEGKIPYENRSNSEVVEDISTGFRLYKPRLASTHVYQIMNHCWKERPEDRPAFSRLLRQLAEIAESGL", "test": "In-lysate competition binding with kinobeads, Jurkat lysate, Western blot", "conditions": "Jurkat lysate preincubated with 0.025-6.0 μM compound", "protocol": "(§1) This example illustrates competition binding in cell lysates (see particularly the third aspect of the invention). A test compound, Bisindolylmaleimide VIII (Bis VIII, a well known kinase inhibitor; Davies et al., 2000. Specificity and mechanism of action of some commonly used protein kinase inhibitors. Biochemical Journal 351 (Pt 1): 95-105) was added to a cell lysate thereby allowing the test compound to bind to the target proteins in the lysate. Then the lysate was contacted with the kinobeads affinity matrix to capture remaining free target proteins. The proteins bound to the kinobeads matrix were then eluted with detergent-containing buffer, separated on a SDS-polyacryamide gel and analyzed by immunodetection (Western blots) or mass spectrometry detection.\n(§2) For Western blot analysis proteins bound to the affinity matrix were eluted from the affinity matrix and subsequently separated by SDS-Polyacrylamide gel elecrophoresis and transferred to a blotting membrane. Individual kinases were detected with specific antibodies against GSK3alpha, GSK3beta and ITK (FIG. 4A). […] For GSK3beta the signal was quantified and plotted against the Bis VIII concentration added to the cell lysate (FIG. 4B).\n(§3) Aliqots of Jurkat lysate (10 mg protein) were incubated with different Bis VIII concentrations for one hour at 4° C. (0.025 μM, 0.074 μM, 0.22 μM, 0.67 μM, 2.0 μM and 6.0 μM final concentration of Bis VIII). To this end Bis VIII solutions were prepared in 100% DMSO as solvent that corresponded to 200 fold desired final Bis VIII concentration (Bis VIII from Alexis Biochemicals cat. number ALX 270-056). Five μl of these solutions were added to 1 ml of lysate resulting in the indicated final concentrations. For a control experiment 5 μl of DMSO without Bis VIII were used.\n(§4) To each preincubated lysate sample 40 μl of kinobeads (see example 1) were added and incubated for one hour at 4° C. During the incubation the tubes were rotated on an end-over-end shaker (Roto Shake Genie, Scientific Industries Inc.). […]"}, "GSK3beta": {"target": "T2, GSK3beta (Homo sapiens, UniProt P49841)", "T2 construct": "Aliqots of Jurkat lysate (10 mg protein) were incubated with different Bis VIII concentrations; endogenous in cells; host or cells: Jurkat clone E6-1 lysate", "T2 sequence (P49841 whole entry)": "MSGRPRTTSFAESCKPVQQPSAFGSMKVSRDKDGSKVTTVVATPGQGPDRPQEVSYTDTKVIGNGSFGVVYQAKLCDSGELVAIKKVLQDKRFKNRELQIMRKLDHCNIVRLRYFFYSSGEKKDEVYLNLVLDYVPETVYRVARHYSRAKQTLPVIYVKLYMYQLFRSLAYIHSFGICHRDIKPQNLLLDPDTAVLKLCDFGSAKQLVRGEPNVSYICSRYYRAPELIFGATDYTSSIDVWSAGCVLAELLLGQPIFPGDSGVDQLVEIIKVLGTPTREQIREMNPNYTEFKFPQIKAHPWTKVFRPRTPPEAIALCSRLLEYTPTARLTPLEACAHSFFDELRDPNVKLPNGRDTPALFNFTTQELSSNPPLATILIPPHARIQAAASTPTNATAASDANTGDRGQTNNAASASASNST", "test": "In-lysate competition binding with kinobeads, Jurkat lysate, Western blot", "conditions": "Jurkat lysate preincubated with 0.025-6.0 μM compound", "protocol": "as §1, §2, §3, §4"}, "GSK3alpha": {"target": "T3, GSK3alpha (Homo sapiens, UniProt P49840)", "T3 construct": "Aliqots of Jurkat lysate (10 mg protein) were incubated with different Bis VIII concentrations; endogenous in cells; host or cells: Jurkat clone E6-1 lysate", "T3 sequence (P49840 whole entry)": "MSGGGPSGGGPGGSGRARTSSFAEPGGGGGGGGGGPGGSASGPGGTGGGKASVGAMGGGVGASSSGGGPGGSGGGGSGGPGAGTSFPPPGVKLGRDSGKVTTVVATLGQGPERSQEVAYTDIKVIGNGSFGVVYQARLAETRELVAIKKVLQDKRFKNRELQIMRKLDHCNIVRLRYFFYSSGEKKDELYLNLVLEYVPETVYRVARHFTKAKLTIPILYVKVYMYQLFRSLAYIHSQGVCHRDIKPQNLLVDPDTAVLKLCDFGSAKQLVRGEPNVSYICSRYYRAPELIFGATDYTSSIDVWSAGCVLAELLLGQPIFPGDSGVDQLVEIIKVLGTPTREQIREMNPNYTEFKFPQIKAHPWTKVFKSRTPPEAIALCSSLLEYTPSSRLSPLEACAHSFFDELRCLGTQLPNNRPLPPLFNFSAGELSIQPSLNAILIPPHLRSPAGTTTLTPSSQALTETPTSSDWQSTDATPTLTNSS", "test": "In-lysate competition binding with kinobeads, Jurkat lysate, Western blot", "conditions": "Jurkat lysate preincubated with 0.025-6.0 μM compound", "protocol": "as §1, §2, §3, §4"}, "[1]": {"target": "T4, proteins captured on kinobeads from Jurkat cell lysate (Homo sapiens, UniProt P06241)", "T4 construct": "endogenous in cells; host or cells: Jurkat clone E6-1 lysate", "T4 sequence (P06241 whole entry)": "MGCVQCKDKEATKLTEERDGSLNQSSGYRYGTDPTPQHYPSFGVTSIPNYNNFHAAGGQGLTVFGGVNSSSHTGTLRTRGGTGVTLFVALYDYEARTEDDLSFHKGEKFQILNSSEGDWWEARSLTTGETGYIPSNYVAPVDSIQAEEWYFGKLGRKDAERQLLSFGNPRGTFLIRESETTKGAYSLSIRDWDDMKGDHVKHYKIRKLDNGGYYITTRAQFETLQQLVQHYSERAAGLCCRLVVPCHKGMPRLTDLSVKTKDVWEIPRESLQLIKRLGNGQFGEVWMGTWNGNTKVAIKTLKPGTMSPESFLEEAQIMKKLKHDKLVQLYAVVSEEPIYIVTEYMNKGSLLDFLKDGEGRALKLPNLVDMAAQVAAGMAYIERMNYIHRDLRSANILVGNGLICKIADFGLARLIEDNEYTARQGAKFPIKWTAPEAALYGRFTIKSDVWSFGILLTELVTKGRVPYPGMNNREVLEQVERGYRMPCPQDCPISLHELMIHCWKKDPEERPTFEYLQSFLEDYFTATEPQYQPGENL", "test": "In-lysate competition binding with kinobeads, Jurkat lysate, iTRAQ MS, relative intensity of identified proteins (Table 22)", "conditions": "DMSO control = 1.0", "protocol": "as §1\n(§5) For the quantitative detection of proteins by mass spectrometry proteins were eluted from the affinity matrix and subsequently separated by SDS-Polyacrylamide gel elecrophoresis. Suitable gel areas were cut out and subjected to in-gel proteolytic digestion with trypsin.\n(§6) Four tryptic digest samples (corresponding to three different Bis VIII concentrations in the lysate and one DMSO control) were labeled with ITRAQ reagents and the combined samples were analyzed in a single LC-MS/MS mass spectrometry analysis followed by peak quantification in the MS/MS spectrum (Ross et al., 2004. Multiplexed protein quantitation in Saccharomyces cerevisiae using amine-reactive isobaric tagging reagents. Mol. Cell. Proteomics 3(12): 1154-1169). […] Binding curves for individual kinases are shown (FIG. 5). The relative intensity 50 (RI50) values representing the affinity of kinase-compound pairs are similar to IC50 values reported by kinase enzyme assays (Davies et al., 2000. Specificity and mechanism of action of some commonly used protein kinase inhibitors. Biochemical Journal 351 (Pt 1): 95-105).\nas §3\n(§7) To each preincubated lysate sample 40 μl of kinobeads (see example 1) were added and incubated for one hour at 4° C. During the incubation the tubes were rotated on an end-over-end shaker (Roto Shake Genie, Scientific Industries Inc.). Beads were collected by centrifugation, transfered to Mobicol-columns (MoBiTech 10055) and washed with 10 ml 1×DP buffer containing 0.4% NP40 detergent, followed by a wash with 5 ml 1×DP buffer with 0.2% NP40. To elute the bound proteins, 100 μl 2×SDS sample buffer was added, the column was heated for 30 minutes at 50° C. and the eluate was transferred to a microfuge tube by centrifugation. Proteins were then separated by SDS-Polyacrylamide electrophoresis (SDS-PAGE). The composition and preparation of buffers is described in example 2.\n(§8) The peptide extracts of samples treated with different concentrations of the test compound (0.074 μM, 0.22 μM and 0.67 μM Bis VIII) and the solvent control (0.5% DMSO) were treated with different isomers of the isobaric tagging reagent (iTRAQ Reagents Multiplex Kit, part number 4352135, Applied Biosystems, Foster City, Calif., USA). The iTRAQ reagents are a set of multiplexed, amine-specific, stable isotope reagents that can label all peptides in up to four different biological samples enabling simultaneous identification and quantitation of peptides. The iTRAQ reagents were used according to instructions provided by the manufacturer. […]"}, "[2]": {"target": "T5, proteins captured on kinobeads from Jurkat cell lysate (Homo sapiens, UniProt P16083)", "T5 construct": "endogenous in cells; host or cells: Jurkat clone E6-1 lysate", "T5 sequence (P16083 whole entry)": "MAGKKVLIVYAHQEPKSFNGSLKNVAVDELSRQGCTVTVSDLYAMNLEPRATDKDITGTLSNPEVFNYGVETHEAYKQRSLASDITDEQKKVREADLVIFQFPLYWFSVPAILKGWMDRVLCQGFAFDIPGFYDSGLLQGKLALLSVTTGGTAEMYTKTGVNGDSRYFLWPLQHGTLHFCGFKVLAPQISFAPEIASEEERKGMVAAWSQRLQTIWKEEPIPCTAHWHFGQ", "test": "In-lysate competition binding with kinobeads, Jurkat lysate, iTRAQ MS, relative intensity of identified proteins (Table 22)", "conditions": "DMSO control = 1.0", "protocol": "as §1, §5, §6, §3, §7, §8"}, "[3]": {"target": "T6, proteins captured on kinobeads from Jurkat cell lysate (Homo sapiens, UniProt P24941)", "T6 construct": "endogenous in cells; host or cells: Jurkat clone E6-1 lysate", "test": "In-lysate competition binding with kinobeads, Jurkat lysate, iTRAQ MS, relative intensity of identified proteins (Table 22)", "conditions": "DMSO control = 1.0", "protocol": "as §1, §5, §6, §3, §7, §8"}, "[4]": {"target": "T7, proteins captured on kinobeads from Jurkat cell lysate (Homo sapiens, UniProt Q16539)", "T7 construct": "endogenous in cells; host or cells: Jurkat clone E6-1 lysate", "T7 sequence (Q16539 whole entry)": "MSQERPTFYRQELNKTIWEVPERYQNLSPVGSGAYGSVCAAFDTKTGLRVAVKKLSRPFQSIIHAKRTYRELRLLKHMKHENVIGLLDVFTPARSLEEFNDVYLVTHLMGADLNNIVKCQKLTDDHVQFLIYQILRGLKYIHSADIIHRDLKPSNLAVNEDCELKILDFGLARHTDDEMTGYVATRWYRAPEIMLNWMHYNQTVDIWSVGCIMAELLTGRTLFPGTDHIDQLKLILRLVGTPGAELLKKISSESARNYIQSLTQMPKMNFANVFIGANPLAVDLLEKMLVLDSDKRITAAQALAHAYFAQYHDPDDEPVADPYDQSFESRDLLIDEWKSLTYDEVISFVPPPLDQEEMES", "test": "In-lysate competition binding with kinobeads, Jurkat lysate, iTRAQ MS, relative intensity of identified proteins (Table 22)", "conditions": "DMSO control = 1.0", "protocol": "as §1, §5, §6, §3, §7, §8"}}, "data": [{"compound": "Cn1cc(C2=C(c3cn(CCCN)c4ccccc34)C(=O)NC2=O)c2ccccc21", "note": "[Bis VIII, Bisindolylmaleimide VIII]", "values": [{"measurement": "binding of ITK to kinobeads, Western blot", "setting": "ITK", "result": "not binding of ITK"}, {"measurement": "binding of GSK3beta to kinobeads, Western blot", "setting": "GSK3beta", "result": "prevented binding"}, {"measurement": "binding of GSK3alpha to kinobeads, Western blot", "setting": "GSK3alpha", "result": "prevented binding"}, {"measurement": "Relative Intensity, FYN", "setting": "[1]; 0.074 uM in lysate", "result": 0.91}, {"measurement": "Relative Intensity, FYN", "setting": "[1]; 0.67 uM in lysate", "result": 0.93}, {"measurement": "Relative Intensity, NQO2", "setting": "[2]; 0.074 uM in lysate", "result": 0.87}, {"measurement": "Relative Intensity, NQO2", "setting": "[2]; 0.67 uM in lysate", "result": 0.78}, {"measurement": "Relative Intensity, CDK2", "setting": "[3]; 0.074 uM in lysate", "result": 0.89}, {"measurement": "Relative Intensity, CDK2", "setting": "[3]; 0.67 uM in lysate", "result": 0.65}, {"measurement": "Relative Intensity, p38a (MAPK14)", "setting": "[4]; 0.074 uM in lysate", "result": 0.82}, {"measurement": "Relative Intensity, p38a (MAPK14)", "setting": "[4]; 0.67 uM in lysate", "result": 0.93}]}]}
